# Reference: the supplement of paper PMC10307832
# What was measured:
# Test in all cases: relative viability (nuclei count vs DMSO), 5 days (fraction); higher = more cells survive
# [1] = compound: C1=CC2=C(C=C(C(=C2N=C1)O)N=NC3=CC4=C(C=C3)C=C(C=C4)S(=O)(=O)O)S(=O)(=O)O + Cc1cc(Nc2cc(N3CCN(C)CC3)nc(Sc3ccc(NC(=O)C4CC4)cc3)n2)n[nH]1 [Tozasertib] (partner 0.1 µM)
# Outline: (§1)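 Five library-drug doses in √10 steps were combined with a fixed anchor-drug dose, or a single drug was given alone, by pin tool to lung cancer cell lines in 1536-well plates the day after seeding. Nuclei were stained and counted after 5 days. Relative viability is the nuclei count in treated wells over that in vehicle wells, taken as the median of duplicate plates.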
# [2] = compound: C1=CC2=C(C=C(C(=C2N=C1)O)N=NC3=CC4=C(C=C3)C=C(C=C4)S(=O)(=O)O)S(=O)(=O)O + NC(=O)Nc1cc(-c2cccc(F)c2)sc1C(=O)N[C@H]1CCCNC1 [AZD7762] (partner 0.2 µM)
# Outline: as §1
# AT-7519 + Phenformin = compound: O=C(NC1CCNCC1)c1n[nH]cc1NC(=O)c1c(Cl)cccc1Cl [AT-7519] + N=C(N)NC(=N)NCCc1ccccc1 [Phenformin] (partner 250 µM)
# Outline: as §1
# [3] = compound: C1=CC2=C(C=C(C(=C2N=C1)O)N=NC3=CC4=C(C=C3)C=C(C=C4)S(=O)(=O)O)S(=O)(=O)O + Nc1nc2[nH]cc(CCc3ccc(C(=O)N[C@@H](CCC(=O)O)C(=O)O)cc3)c2c(=O)[nH]1 [Pemetrexed] (partner 0.2 µM)
# Outline: as §1
Cell Line,relative viability ([1]; first compound 0.08 µM),relative viability ([1]; first compound 0.253 µM),relative viability ([1]; first compound 0.8 µM),relative viability ([1]; first compound 2.53 µM),relative viability ([1]; first compound 8 µM),relative viability ([2]; first compound 0.08 µM),relative viability ([2]; first compound 0.253 µM),relative viability ([2]; first compound 0.8 µM),relative viability ([2]; first compound 2.53 µM),relative viability ([2]; first compound 8 µM),relative viability (AT-7519 + Phenformin; first compound 0.01 µM),relative viability (AT-7519 + Phenformin; first compound 0.03162 µM),relative viability (AT-7519 + Phenformin; first compound 0.3162 µM),relative viability (AT-7519 + Phenformin; first compound 1 µM),relative viability ([3]; first compound 0.08 µM),relative viability ([3]; first compound 0.253 µM),relative viability ([3]; first compound 0.8 µM),relative viability ([3]; first compound 2.53 µM),relative viability ([3]; first compound 8 µM)
NCI-H727,0.535,0.653,0.87,0.767,0.441,0.689,0.639,0.646,0.639,0.658,0.527,0.584,0.509,0.417,–,–,–,–,–
NCI-H1563,–,–,–,–,–,–,–,–,–,–,0.66,0.625,0.645,0.651,0.776,0.744,0.726,0.79,0.376
NCI-H1623,0.432,0.416,0.458,0.506,0.428,–,–,–,–,–,0.583,0.567,0.668,0.557,–,–,–,–,–
NCI-H1648,0.432,0.422,0.615,0.533,0.507,–,0.712,–,–,0.717,–,–,–,–,–,0.695,–,–,0.855
NCI-H1650,0.4,0.347,0.45,0.407,0.231,–,–,–,–,–,0.466,0.427,0.292,0.15,0.433,0.346,0.368,0.389,0.4
NCI-H1703,–,–,–,–,–,0.147,0.163,0.13,–,0.16,–,–,–,–,–,–,–,–,–
NCI-H1792,–,–,–,–,–,1,0.655,0.723,0.715,0.836,0.208,0.22,0.315,0.163,1.02,0.764,0.821,0.821,0.897
NCI-H2009,0.766,0.756,0.741,0.842,0.562,–,–,–,–,–,0.521,0.451,0.472,0.276,1.07,1.05,0.89,1.04,0.988
NCI-H2023,0.398,0.311,0.411,0.347,0.36,–,–,–,–,–,0.389,0.435,0.321,0.0704,0.205,0.223,0.265,0.256,0.14
NCI-H2228,0.264,0.269,0.279,0.233,0.295,–,–,–,–,–,0.298,0.305,0.193,0.165,0.305,0.312,0.328,0.334,0.324
SK-LU-1,0.32,0.286,0.303,0.331,0.336,–,–,–,–,–,0.499,0.444,0.322,0.231,1.04,0.937,0.956,0.954,1.01
SK-MES-1,1.01,0.888,0.804,0.924,0.935,–,–,–,–,–,0.655,0.651,0.63,0.331,0.972,0.953,0.932,0.942,0.882
SW 1573,0.164,0.185,0.187,0.181,0.0943,–,–,–,–,–,0.421,0.349,0.236,0.0778,0.881,0.817,0.78,0.838,0.257
